Experimental data reported in PubChem BioAssay (NCI).
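Compound exposure: 48 hours, 5 concentrations, 96-well plates. Here, GI50 denotes the concentration required for 50% inhibition of growth. TGI: total growth inhibition.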

Tests used:
Experiment in all cases: NCI-60 cell line screen, 48 h
[1] = test system: SF-295 CNS
[2] = test system: IGROV1 ovarian
[3] = test system: T-47D breast
[4] = test system: NCI-H226 lung
[5] = test system: NCI-H522 lung
[6] = test system: COLO 205 colon
[7] = test system: SK-MEL-28 melanoma
[8] = test system: CCRF-CEM leukemia
[9] = test system: ACHN renal
[10] = test system: NCI/ADR-RES ovarian

| SMILES | GI50 [1] | TGI [1] | GI50 [2] | TGI [2] | GI50 [3] | TGI [3] | GI50 [4] | TGI [4] | GI50 [5] | TGI [5] | GI50 [6] | TGI [6] | GI50 [7] | TGI [7] | GI50 [8] | TGI [8] | GI50 [9] | TGI [9] | GI50 [10] | TGI [10] |
| --- | --- | --- | --- | --- | --- | --- | --- | --- | --- | --- | --- | --- | --- | --- | --- | --- | --- | --- | --- | --- |
| CCN1C(=O)N(CC)C2C1NC(=S)N2/N=C/C=C/c1ccccc1 (centres undefined) | 66.6 nM | > 100 µM | 142 nM | > 100 µM | 21.5 µM | > 100 µM | 0.383 µM | > 100 µM | 0.0486 µM | 4.45 µM | 0.213 µM | 5.44 µM | 1.91 µM | > 100 µM | 128 nM | > 100 µM | 98 nM | > 100 µM | 0.0935 µM | > 100 µM |
| O=c1[nH]c(=S)[nH]c(O)c1/C=C1\C=Nc2ccccc21 | 1810 nM | 6.84 µM | 1020 nM | 5.55 µM | 34.4 µM | > 100 µM | 12.5 µM | 46.1 µM | 16.9 µM | 54.4 µM | 3.77 µM | 18.3 µM | 6.69 µM | 48.3 µM | 2120 nM | 6.47 µM | 11400 nM | 24.3 µM | 6.64 µM | 58 µM |
| CN(C)CCCOc1ccc(NC2=C(Cl)C(=O)C(Nc3ccc(OCCCN(C)C)cc3)=C(Cl)C2=O)cc1 | 1670 nM | 3.19 µM | 544 nM | 1.11 µM | 1.96 µM | 4.96 µM | 1.92 µM | 3.83 µM | 0.236 µM | 0.602 µM | 0.239 µM | 0.589 µM | 1.74 µM | 3.16 µM | 272 nM | 2.95 µM | 1660 nM | 3.02 µM | 1.68 µM | 4.72 µM |
| Oc1cn(-c2ccc(Cl)cc2)nc1-c1n[nH]c(=S)n1-c1ccc(F)cc1 | 14800 nM | 66.9 µM | 7120 nM | 24.1 µM | > 100 µM | > 100 µM | 26.6 µM | 90.2 µM | 18 µM | 64.8 µM | 61.4 µM | > 100 µM | 20.4 µM | > 100 µM | 7290 nM | > 100 µM | 28800 nM | > 100 µM | 15.4 µM | 54.9 µM |
| OCc1ccc(-c2ccc(-c3ccc(CO)o3)o2)o1 | 23700 nM | > 100 µM | – | > 31.2 µM | 22.7 µM | > 100 µM | 0.576 µM | 2.59 µM | > 100 µM | > 100 µM | 18.6 µM | 48.2 µM | > 100 µM | > 100 µM | > 100000 nM | > 100 µM | 35900 nM | > 100 µM | > 100 µM | > 100 µM |
| Cc1ccc(C(=O)Nc2ccc(Oc3cc4cnn(C)c4cc3-c3cn[nH]c3)c(F)c2)c(=O)n1-c1ccc(F)cc1 | 85.6 nM | > 100 µM | > 100000 nM | > 100 µM | 7.28 µM | > 78.8 µM | 2.16 µM | > 100 µM | 32 µM | > 100 µM | 5.36 µM | > 100 µM | 3.54 µM | > 100 µM | > 100000 nM | > 100 µM | 2900 nM | > 100 µM | > 94.1 µM | > 100 µM |
| CCOC(=O)[C@@H](C)C[C@H](Cc1ccccc1)NC(=O)c1csc([C@@H](C[C@H](C(C)C)N(C)C(=O)CNC(=O)[C@H]2CCCCN2C)OC(C)=O)n1 | 621 nM | 6.85 µM | 628 nM | > 14.3 µM | 0.59 µM | > 14.3 µM | > 5.67 µM | > 14.3 µM | 0.463 µM | > 3.79 µM | 0.483 µM | 3.64 µM | 1.52 µM | > 14.3 µM | 1080 nM | > 14.3 µM | 837 nM | > 14.3 µM | > 14.3 µM | > 14.3 µM |
| COC(=O)c1ccc(NC(N)=NCCC(C)(C)c2ccc(C(F)(F)F)cc2)nc1 | 1630 nM | 3.51 µM | 1770 nM | 3.82 µM | 1.62 µM | 4.71 µM | 3.33 µM | 18.8 µM | 3.1 µM | 13 µM | 1.7 µM | 3.41 µM | 1.64 µM | 3.23 µM | 3010 nM | 11 µM | 1910 nM | 4.85 µM | 2.35 µM | 6.03 µM |
| NC1=NC(c2ccccc2Cl)c2c(n[nH]c2N)N1 (centres undefined) | 16700 nM | > 100 µM | 9480 nM | > 100 µM | 26.1 µM | > 100 µM | 38.4 µM | > 100 µM | 19.6 µM | > 100 µM | 23.9 µM | > 100 µM | 42.5 µM | > 100 µM | 4590 nM | > 100 µM | 34600 nM | > 100 µM | 30.4 µM | > 100 µM |
| CC(C)(C)O/N=C/c1cc(NC(=S)c2ccccc2)ccc1Cl | – | 51.3 µM | – | 27.1 µM | – | 62.5 µM | – | 34.7 µM | – | 28.2 µM | – | 27.8 µM | – | 32.5 µM | – | 74.5 µM | – | 32.7 µM | – | 33.5 µM |
